Test results published in paper PMC11784145, “Efficacy and in vitro pharmacological assessment of novel N-hydroxypyridinediones as hepatitis B virus ribonuclease H inhibitors” (Antimicrobial Agents and Chemotherapy, 2024).
Several values for one entry are separate records, joined by “and”; a condition that tells them apart may be missing. Equal entries are not always repeated.

How the values were obtained:
Microsome stability = type: in vitro ADME, human; conditions: human liver microsomes; for Clearance (intrinsic clearance, Clint) / Half-life: 1 µM compound, 30 min, NADPH
HepDES19 cells = conditions: read-out: HepDES19 CC50; 72 h, MTS; highest concentration tested 100 µM; mean ± SD
Protocol: HepDES19 cells were plated on 96-well tissue culture-treated plates (Greiner) at 1.0 × 10^4 cells per well and incubated for 48 h. Cells were treated with titrated concentrations of compound or 1% DMSO vehicle for 72 h, and cellular viability was measured by 3-(4,5-dimethylthiazol-2-yl)−5-(3-carboxymethoxyphenyl)−2-(4-sulfophenyl)−2H-tetrazolium (MTS) assays, as described previously ([20]). […] Three or more replicate assays were done on different days.

[1] = Solubility limit, turbidimetric assay; type: physicochemical; conditions: upper limit 200 µM
Protocol: Solubility limits were determined by a turbidimetric assay, as described ([27]), with the solubility limit being defined as the compound concentration where light scattering began to rise. Two or more replicate assays were performed for each compound at each pH on different days.

CYP2D6 = molecular target: T1, CYP2D6 (Homo sapiens, UniProt P10635); assay: Cytochrome P450 inhibition, Vivid 2D6 EOMCC Blue kit; type: in vitro ADME; conditions: for IC50: dose-response 50 µM to 3 nM, mean ± SD
T1 construct: purchased Thermo Fisher Vivid 2D6 EOMCC Blue
Protocol: Compound inhibition of Cytochrome P (CYP) 3A4, 2C9, and 2D6 was determined using Vivid CYP450 screening kits (Thermo Fisher) according to the manufacturer’s instructions, as described previously ([27]). The kits employed were: Vivid 3A4 DBOMF Green, 2C9 BOMF Green, and 2D6 EOMCC Blue. Reactions were initiated by addition of the fluorophore-conjugated substrates with Vivid NADP^+ and were conducted at 37°C using either a Biotek Synergy HTX multi-mode plate reader with 485/20 nm excitation and 520/20 nm emission filters (green-fluorescent substrate), or a Tecan Spark plate reader with monochromator settings at 415/20 nm excitation and 460/20 nm emission (blue-fluorescent substrate) defined by the Center Wavelength/band-pass values. Substrate cleavage was detected every 60 s.
Compounds were initially screened against each enzyme at 10 µM and maximum rates of fluorescence in RFU were calculated using the Biotek Gen5 v3.11 software. Percent inhibition of experimental compound reactions was normalized to the rate to DMSO vehicle reactions. Positive controls used were: CYP3A4—ketoconazole (Sigma Aldrich), CYP2C9—sulfaphenazole (Cayman Chemical), and CYP2D6—quinidine (Fisher Scientific). Dose-response curves were generated for compounds that inhibited an enzyme by ≥50% using titrated concentrations of compound (50 µM to 3 nM) or 1% DMSO. IC50 values were determined using the four-parameter log[inhibitor] versus response algorithm in GraphPad Prism. Qualitative screens and dose-response curves were each performed in triplicate on different days.

[2] = Parallel artificial membrane permeability assay (PAMPA); type: in vitro ADME
Protocol: Compound Papp values were determined by normalizing the experimental compound absorbance to the compounds’ absorbances at equilibrium, membrane porosity, buffer volume, and time (s). Two or more replicate assays were obtained on separate days for each pH.

MDCK-MDR1 cells = assay: MDCK-MDR1 permeability assay; type: in vitro ADME; conditions: 10 µM compound, 2 h; for Efflux Ratio (Papp B-A/A-B): MDCK-MDR1 cells, actively effluxed if >2
Protocol: MDCK-MDR1 cells were seeded on 96-well, high protein binding immobilon-P membrane plates (Millipore Sigma) at 2.4 × 10^4 cells per well for 4 days. Media were then decanted, and the cells were equilibrated with Hanks balanced salt solution (HBSS) supplemented with 10 mM CaCl2 and 1 mM MgCl2 for 1 h. Compound (10 µM) was then added to the apical side to assess active transport and to the basolateral side to assess active efflux. The cells were incubated with compound for 2 h with shaking at 37°C. Samples (50 µL) were retrieved from the recipient wells and mixed with 150 µL acetonitrile (ACN) and internal standard (1:1 of 200 ng/mL chloridazon:enalapril). Samples were pelleted at 4,000 × g and the supernatant was analyzed by liquid-chromatography/tandem mass spectrometry (LCMS/MS) analyses. […]. Active efflux was determined by Papp B/A/Papp A/B.
Tight junction formation was assessed by lucifer yellow permeation immediately following sample retrieval. Briefly, lucifer yellow (10 µM) was added to the apical wells and HBSS was added to the basolateral wells for 1 h with shaking at 37°C, after which sample was collected from the basolateral side and read on a Biotek Synergy HTX multi-mode plate reader with 485/20 excitation and 520/20 emission filters defined by the Center Wavelength/band-pass values. The percent lucifer yellow fluorescence was determined by subtracting the HBSS relative fluorescent units (RFU) from the sample RFU and normalizing to the lucifer yellow positive control RFU. Lucifer yellow permeation was determined to be acceptable if ≤3%.

plasma proteins = assay: Plasma protein binding, rapid equilibrium dialysis; type: in vitro ADME, bovine; conditions: 10 µM compound, DMEM-F12 with 10% FBS (0.25 mg/mL BSA), 4 h, 37°C
Protocol: Plasma protein binding was performed using the Pierce rapid equilibrium dialysis device (Thermo Fisher) per the manufacturer’s instructions, as described ([27]). Briefly, the sample wells contained DMEM-F12 supplemented with 10% FBS spiked with 10 µM compound, and the buffer wells contained phosphate-buffered saline (PBS). The plate was incubated for 4 h at 37°C with shaking, after which 50 µL was retrieved from the buffer and sample wells and added to ice-cold acetonitrile and the internal standard described above. Samples were matrix-matched with PBS supplemented with 10% FBS or PBS alone, respectively, and centrifuged at 4,000 × g for 5 min to pellet plasma proteins. The supernatants were analyzed by LCMS/MS and percent compound bound was determined, as described previously ([27]).

[3] = pH 5 (fed simulated intestinal fluid)
[4] = pH 6.5 (fasted simulated intestinal fluid)

T1 sequence (P10635 whole entry): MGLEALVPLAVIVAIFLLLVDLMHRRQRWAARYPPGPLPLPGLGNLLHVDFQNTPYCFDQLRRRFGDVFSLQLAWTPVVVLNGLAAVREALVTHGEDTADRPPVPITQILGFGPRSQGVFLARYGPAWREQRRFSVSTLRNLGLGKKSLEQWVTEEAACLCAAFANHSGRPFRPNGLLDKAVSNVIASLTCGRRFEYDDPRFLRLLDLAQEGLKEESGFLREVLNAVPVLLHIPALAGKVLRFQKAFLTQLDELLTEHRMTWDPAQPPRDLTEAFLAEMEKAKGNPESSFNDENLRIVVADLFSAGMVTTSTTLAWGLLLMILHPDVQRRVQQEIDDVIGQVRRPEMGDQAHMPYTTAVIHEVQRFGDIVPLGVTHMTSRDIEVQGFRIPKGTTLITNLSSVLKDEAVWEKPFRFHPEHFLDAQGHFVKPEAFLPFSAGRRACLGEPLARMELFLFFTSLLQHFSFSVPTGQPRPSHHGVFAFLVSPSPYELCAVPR

| SMILES | Intrinsic clearance (Clint) rate category (Microsome stability) | Clearance (intrinsic clearance, Clint) (Microsome stability) [µL/min/mg] | Half-life (Microsome stability) [min] | CC50 (HepDES19 cells) [µM] | Average Sol (solubility limit) [1, 3] [µM] | Sol 1 (solubility limit) ([1]; pH 5, replicate 1) [µM] | Sol 2 (solubility limit) ([1]; pH 5, replicate 2) [µM] | Average Sol (solubility limit) [1, 4] [µM] | Sol 1 (solubility limit) ([1]; pH 6.5, replicate 1) [µM] | Sol 2 (solubility limit) ([1]; pH 6.5, replicate 2) [µM] | Average Sol (solubility limit) ([1]; pH 7.4 (DMEM-F12 with 10% FBS)) [µM] | Sol 1 (solubility limit) ([1]; pH 7.4, replicate 1) [µM] | Sol 2 (solubility limit) ([1]; pH 7.4, replicate 2) [µM] | IC50 (CYP2D6) [µM] | Avg Papp (PAMPA) ([2]; FeSSIF pH 5) [×10⁻⁶ cm/s] | Interpretation (PAMPA Papp) ([2]; FeSSIF pH 5) | Papp 1 (PAMPA) ([2]; FeSSIF pH 5, replicate 1) [×10⁻⁶ cm/s] | Papp 2 (PAMPA) ([2]; FeSSIF pH 5, replicate 2) [×10⁻⁶ cm/s] | Avg Papp (PAMPA) ([2]; pH 7.4) [×10⁻⁶ cm/s] | PAMPA apparent permeability (Papp) category ([2]; pH 7.4) | also measured |
| --- | --- | --- | --- | --- | --- | --- | --- | --- | --- | --- | --- | --- | --- | --- | --- | --- | --- | --- | --- | --- | --- |
| CC(=NOCc1ccc(F)c(F)c1)c1c(C)cc(=O)n(O)c1O [Compound 1617] | medium (medium Clint rates (≥ 8.6 and ≤47)) | 45.7 | 23.0 | 72.9 ± 37.1 | > 200 | > 200 | > 200 | > 200 | > 200 | > 200 | > 200 | > 200 | > 200 | 4.46 | 15.1 | H (H: Papp > 1*10-6) | 4.04 | 26.1 | 0.95 | low (low (<1 × 10^−6 cm/s)) | Papp 1 (PAMPA) ([2]; pH 7.4, replicate 1): 1.46 ×10⁻⁶ cm/s; Papp 2 (PAMPA) ([2]; pH 7.4, replicate 2): 0.478 ×10⁻⁶ cm/s; Papp 3 (PAMPA) ([2]; pH 7.4, replicate 3): 0.911 ×10⁻⁶ cm/s; MDCK-MDR1 Papp category, apical to basolateral (A-B) (MDCK-MDR1 cells): low (low (<1*10^−6 cm/s)); MDCK-MDR1 Papp category, basolateral to apical (B-A) (MDCK-MDR1 cells): low (low (<1*10^−6 cm/s)); Efflux Ratio (Papp B-A/A-B) (MDCK-MDR1 cells): 1.01; Percent bound (plasma proteins): 100 ± 0.019% |
| CC(=NOCc1cccc(F)c1)c1c(C)cc(=O)n(O)c1O [Compound 1618] | low (low Clint (µL/min/mg protein) rates (<8.6)) | 5.71 | >30 | 73.9 ± 28.6 | > 200 | > 200 | > 200 | > 200 | > 200 | > 200 | > 200 | > 200 | > 200 | 10.2 ± 4.1 | 16.4 | H (H: Papp > 1*10-6) | 15.4 | 17.4 | 0.489 | low (low (<1 × 10^−6 cm/s)) | Sol 3 (solubility limit) ([1]; pH 6.5, replicate 3): > 200 µM; Selectivity index for CYP (CYP2D6) inhibition versus HBV EC50 (CYP2D6): > 150 and 166; Papp 1 (PAMPA) ([2]; pH 7.4, replicate 1): 0.395 ×10⁻⁶ cm/s; Papp 2 (PAMPA) ([2]; pH 7.4, replicate 2): 0.582 ×10⁻⁶ cm/s; MDCK-MDR1 Papp category, apical to basolateral (A-B) (MDCK-MDR1 cells): low (low (<1*10^−6 cm/s)); MDCK-MDR1 Papp category, basolateral to apical (B-A) (MDCK-MDR1 cells): low (low (<1*10^−6 cm/s)); Efflux Ratio (Papp B-A/A-B) (MDCK-MDR1 cells): 0.84; Percent bound (plasma proteins): 93.5 ± 0.129% |
